The results in this text go back to patent publication US9771370B2, “Compounds for the inhibition of indoleamine-2,3-dioxygenase” (Merck Patent GmbH, priority 2014, dated 2017).

Where only a bound is given, the exact number is not on record here.

For this assay, the target named is Recombinant human IDO (Homo sapiens, UniProt P14902). Nature of the assay: Bridge-IT tryptophan fluorescence assay of human IDO-1 inhibition. The assay is classed as biochemical. The following applies: recombinant human IDO 7.5 nM, L-tryptophan. An outline of the steps: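 Two protocol variants: 100 μM L-Trp for 90 min at 37 °C, or 30 min enzyme–compound pre-incubation at 25 °C, then 50 μM L-Trp for 60 min at 25 °C. Reaction stopped in Bridge-IT solution A for 30 min at 30 °C.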
Sequence of Recombinant human IDO (P14902 whole entry): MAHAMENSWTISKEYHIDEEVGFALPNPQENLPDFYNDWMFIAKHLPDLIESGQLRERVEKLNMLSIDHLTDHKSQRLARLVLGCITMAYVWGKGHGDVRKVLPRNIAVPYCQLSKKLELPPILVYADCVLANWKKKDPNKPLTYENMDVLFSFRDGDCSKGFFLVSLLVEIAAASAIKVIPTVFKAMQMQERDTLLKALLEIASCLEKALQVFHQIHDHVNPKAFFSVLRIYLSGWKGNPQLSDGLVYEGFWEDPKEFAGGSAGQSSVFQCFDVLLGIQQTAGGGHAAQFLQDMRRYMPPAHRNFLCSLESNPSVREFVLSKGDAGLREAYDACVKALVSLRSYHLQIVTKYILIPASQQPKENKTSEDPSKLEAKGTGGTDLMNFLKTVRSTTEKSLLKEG
Take `OC(CC1c2ncccc2-c2cncn21)C1CCC(C2(O)CC2)CC1` (single isomer, unassigned) [Compound 117b, 1-[4-[1-hydroxy-2-[4,6,9-triazatricyclo[6.4.0.0^[2,6]]dodeca-1(8),2,4,9,11-pentaen-7-yl]ethyl]cyclohexyl]cyclopropan-1-ol]: the IC50 lay within 100 to 1000 nM. Consider `NC(=O)CC1CCC(F)(CCC2c3c(F)cccc3-c3cncn32)CC1` (single isomer, unassigned) [Compound 116b, 2-[4-Fluoro-4-[2-[6-fluoro-5H-imidazo[4,3-a]isoindol-5-yl]ethyl]cyclohexyl]acetamide], for which the IC50 is less than 100 nM.

As for `FC1(CCC2c3ccccc3-c3cncn32)CCCCC1` (single isomer, unassigned) [Compound 1b, 5-(2-(1-fluorocyclohexyl)ethyl)-5H-imidazo[5,1-a]isoindole], the half-inhibitory concentration (IC50) is 100 to 1000 nM. With `FC(CC1c2ncccc2-c2cncn21)C1CCCCC1` (single isomer, unassigned) [Compound 97d, 7-[2-cyclohexyl-2-fluoroethyl]-4,6,9-triazatricyclo[6.4.0.0^[2,6]]dodeca-1(8),2,4,9,11-pentaene] the figure was greater than 1000 nM; with `Fc1ccnc2c1-c1cncn1C2CCC1(F)CCCCC1` (single isomer, unassigned) [Compound 102b, 12-fluoro-7-[2-(1-fluorocyclohexyl)ethyl]-4,6,9-triazatricyclo[6.4.0.0^[2,6]]dodeca-1(8),2,4,9,11-pentaene], greater than 1000 nM. The result for `OC(CC1c2ncccc2-c2cncn21)C1CCC(F)(F)CC1` (single isomer, unassigned) [Compound 22c, 1-(4,4-difluorocyclohexyl)-2-[4,6,9-triazatricyclo[6.4.0.0^[2,6]]dodeca-1(8),2,4,9,11-pentaen-7-yl]ethan-1-ol] reads greater than 1000 nM. In the case of `OC1CCC(F)(CCC2c3ccccc3-c3cncn32)CC1` (single isomer, unassigned) [Compound 13b, 4-(2-(5H-imidazo[5,1-a]isoindol-5-yl)ethyl)-4-fluorocyclohexanol], the IC50 is less than 100 nM.

Regarding `OC1CCC(C(F)(F)CC2c3c(F)cccc3-c3cncn32)CC1` (mixture of isomers) [Compound 75b, 4-(1,1-difluoro-2-[6-fluoro-5H-imidazo[4,3-a]isoindol-5-yl]ethyl)cyclohexan-1-ol], the IC50 lay within 100 to 1000 nM.

Regarding `CC(C)(O)C1CCC(F)(CCC2c3c(F)cccc3-c3cncn32)CC1` (stereo not drawn) [Compound 86a, 2-[4-fluoro-4-(2-[6-fluoro-5H-imidazo[4,3-a]isoindol-5-yl]ethyl)cyclohexyl]propan-2-ol], the concentration for half-maximal inhibition (IC50) was in the range of 100 to 1000 nM.

Turning to `NC(=O)C1CCC(C(O)CC2c3ncccc3-c3cncn32)CC1` (single isomer, unassigned) [Compound 63c, 4-[1-hydroxy-2-[4,6,9-triazatricyclo[6.4.0.0^[2,6]]dodeca-1(8),2,4,9,11-pentaen-7-yl]ethyl]cyclohexane-1-carboxamide], the half-maximal inhibitory concentration (IC50) is greater than 1000 nM. The result for `COc1ccc2c(n1)C(CC(N)C1CCC(F)(F)CC1)n1cncc1-2` (single isomer, unassigned) [Compound 120a, 1-(4,4-difluorocyclohexyl)-2-[10-methoxy-4,6,9-triazatricyclo[6.4.0.0^[2,6]]dodeca-1(8),2,4,9,11-pentaen-7-yl]ethan-1-amine] reads greater than 1000 nM; that for `Fc1ccnc2c1-c1cncn1C2CCC1(F)CCCCC1` (single isomer, unassigned) [Compound 102a, 12-fluoro-7-[2-(1-fluorocyclohexyl)ethyl]-4,6,9-triazatricyclo[6.4.0.0^[2,6]]dodeca-1(8),2,4,9,11-pentaene], greater than 1000 nM.

For the compound `OC1CCC(C(F)(F)CC2c3c(F)cccc3-c3cncn32)CC1` (stereo not drawn) [Compound 75a, 4-(1,1-difluoro-2-[6-fluoro-5H-imidazo[4,3-a]isoindol-5-yl]ethyl)cyclohexan-1-ol], the 50% inhibitory concentration (IC50) was less than 100 nM. With `O=C(C1CCC(F)(CCC2c3c(Cl)cccc3-c3cncn32)CC1)N1CCCCC1` (single isomer, unassigned) [Compound 115a] the figure was less than 100 nM; with `O=C(O)C1CCC(F)(CCC2c3ccccc3-c3cncn32)CC1` (single isomer, unassigned) [Compound 82a, 4-fluoro-4-(2-[5H-imidazo[4,3-a]isoindol-5-yl]ethyl)cyclohexane-1-carboxylic acid], less than 100 nM. The result for `CC(C)(C)C(=O)N1CCC(C(O)CC2c3ncccc3-c3cncn32)CC1` (single isomer, unassigned) [Compound 88a, 1-[4-[1-hydroxy-2-[4,6,9-triazatricyclo[6.4.0.0^[2,6]]dodeca-1(8),2,4,9,11-pentaen-7-yl]ethyl]piperidin-1-yl]-2,2-dimethylpropan-1-one] reads greater than 1000 nM; that for `FC1(CCC2c3ncccc3-c3cncn32)CCOCC1` (single isomer, unassigned) [Compound 93a, 7-[2-(4-fluorooxan-4-yl)ethyl]-4,6,9-triazatricyclo[6.4.0.0^[2,6]]dodeca-1(8),2,4,9,11-pentaene], greater than 1000 nM; that for `OCC1CCC(F)(CCC2c3ccccc3-c3cncn32)CC1` (single isomer, unassigned) [Compound 59b, [4-fluoro-4-[2-[5H-imidazo[4,3-a]isoindol-5-yl]ethyl]cyclohexyl]methanol], less than 100 nM. With `OC1CCC(F)(CCC2c3c(F)ccc(F)c3-c3cncn32)CC1` (single isomer, unassigned) [Compound 38a, 4-(2-(6,9-difluoro-5H-imidazo[5,1-a]isoindol-5-yl)ethyl)-4-fluorocyclohexanol] the figure was greater than 1000 nM; with `NC(=O)C1CCC(C(O)CC2c3ncccc3-c3cncn32)CC1` (single isomer, unassigned) [Compound 63d, 4-[1-hydroxy-2-[4,6,9-triazatricyclo[6.4.0.0^[2,6]]dodeca-1(8),2,4,9,11-pentaen-7-yl]ethyl]cyclohexane-1-carboxamide], greater than 1000 nM. Consider `OC(CC1c2nc(Cl)ccc2-c2cncn21)C1CCC(F)(F)CC1` (single isomer, unassigned) [Compound 52c, 2-[10-chloro-4,6,9-triazatricyclo[6.4.0.0^[2,6]]dodeca-1(8),2,4,9,11-pentaen-7-yl]-1-(4,4-difluorocyclohexyl)ethan-1-ol], for which the IC50 is greater than 1000 nM. With `OC1CCC(F)(CCC2c3c(Cl)cccc3-c3cncn32)CC1` (single isomer, unassigned) [Compound 71a, 4-[2-[6-chloro-5H-imidazo[4,3-a]isoindol-5-yl]ethyl]-4-fluorocyclohexan-1-ol] the figure was 100 to 1000 nM. Take `FC1(CCC2c3c(Cl)cccc3-c3cncn32)CCOCC1` (single isomer, unassigned) [Compound 96b, 6-chloro-5-[2-(4-fluorooxan-4-yl)ethyl]-5H-imidazo[4,3-a]isoindole]: the IC50 lay in the range of 100 to 1000 nM.

With `OC(CC1c2nc(C3CC3)ccc2-c2cncn21)C1CCCCC1` (single isomer, unassigned) [Compound 56c, 1-cyclohexyl-2-[10-cyclopropyl-4,6,9-triazatricyclo[6.4.0.0^[2,6]]dodeca-1(8),2,4,9,11-pentaen-7-yl]ethan-1-ol], the half-inhibitory concentration (IC50) was greater than 1000 nM. With `COc1ccc2c(n1)C(CCC1(F)CCCCC1)n1cncc1-2` (single isomer, unassigned) [Compound 32a, 7-[2-(1-fluorocyclohexyl)ethyl]-10-methoxy-4,6,9-triazatricyclo[6.4.0.0^[2,6]]dodeca-1(8),2,4,9,11-pentaene] the figure was greater than 1000 nM; with `OC(CC1c2ncccc2-c2cncn21)C1(F)CCC(F)(F)CC1` (single isomer, unassigned) [Compound 87a, 2-[4,6,9-triazatricyclo[6.4.0.0^[2,6]]dodeca-1(8),2,4,9,11-pentaen-7-yl]-1-(1,4,4-trifluorocyclohexyl)ethan-1-ol], greater than 1000 nM; with `OC(CC1c2nc(C3CC3)ccc2-c2cncn21)C1CCC(F)(F)CC1` (single isomer, unassigned) [Compound 57c, 2-[10-cyclopropyl-4,6,9-triazatricyclo[6.4.0.0^[2,6]]dodeca-1(8),2,4,9,11-pentaen-7-yl]-1-(4,4-difluorocyclohexyl)ethan-1-ol], 100 to 1000 nM.

Take `OC(CC1c2nc(C3CC3)ccc2-c2cncn21)C1CCC(F)(F)CC1` (single isomer, unassigned) [Compound 57b, 2-[10-cyclopropyl-4,6,9-triazatricyclo[6.4.0.0^[2,6]]dodeca-1(8),2,4,9,11-pentaen-7-yl]-1-(4,4-difluorocyclohexyl)ethan-1-ol]: the IC50 lay within 100 to 1000 nM. With `OC(CC1c2ncccc2-c2cncn21)C1CCCCC1` (single isomer, unassigned) [Compound 5b, 1-cyclohexyl-2-[4,6,9-triazatricyclo[6.4.0.0^[2,6]]dodeca-1(8),2,4,9,11-pentaen-7-yl]ethan-1-ol], the half-maximal inhibitory concentration (IC50) was greater than 1000 nM. Turning to `FC1(F)CCC(CCC2c3ncccc3-c3cncn32)CC1` (stereo not drawn) [Compound 49, 7-[2-(4,4-difluorocyclohexyl)ethyl]-4,6,9-triazatricyclo[6.4.0.0^[2,6]]dodeca-1(8),2,4,9,11-pentaene], the half-maximal inhibitory concentration (IC50) lay in the range of 100 to 1000 nM. As to `CC(C)(O)C1CCC(F)(CCC2c3ccccc3-c3cncn32)CC1` (single isomer, unassigned) [Compound 61d, 2-[4-fluoro-4-[2-[5H-imidazo[4,3-a]isoindol-5-yl]ethyl]cyclohexyl]propan-2-ol], the concentration for half-maximal inhibition (IC50) was less than 100 nM. With `OC(CC1c2ncccc2-c2cncn21)C1(F)CCC(F)(F)CC1` (single isomer, unassigned) [Compound 87b, 2-[4,6,9-triazatricyclo[6.4.0.0^[2,6]]dodeca-1(8),2,4,9,11-pentaen-7-yl]-1-(1,4,4-trifluorocyclohexyl)ethan-1-ol] the figure was greater than 1000 nM; with `NC(=O)C1CCC(F)(CCC2c3c(Cl)cccc3-c3cncn32)CC1` (single isomer, unassigned) [Compound 99a, 4-[2-[6-chloro-5H-imidazo[4,3-a]isoindol-5-yl]ethyl]-4-fluorocyclohexane-1-carboxamide], greater than 1000 nM.

Usually IC50 stands for the concentration needed to halve the response being measured.
